Legend:
[1] = target: protein kinase A type II alpha holoenzyme (Homo sapiens, UniProt P13861); experiment: Photometric (Cook) assay with protein kinase A type II alpha holoenzyme; type: biochemical; conditions: for effect on protein kinase A type II alpha holoenzyme: photometric assay
Excerpt: In another similar experiment the properties of Rp- and Sp-8-Br-cAMPB towards protein kinase A type II a were investigated in the photometric assay (Cook, P. F., Neville, M. E., Jr., Vrana, K. E., Hartl, F. T. and Roskoski, R., Jr., Biochemistry 21, 5794-5799 (1982))

[2] = target: protein kinase A type I alpha holoenzyme (Homo sapiens, UniProt P10644); experiment: Standard photometric (Cook) assay with protein kinase A type I alpha holoenzyme; type: biochemical; conditions: holoenzyme RIα
protein kinase A type I alpha holoenzyme, sequence (P10644 whole entry): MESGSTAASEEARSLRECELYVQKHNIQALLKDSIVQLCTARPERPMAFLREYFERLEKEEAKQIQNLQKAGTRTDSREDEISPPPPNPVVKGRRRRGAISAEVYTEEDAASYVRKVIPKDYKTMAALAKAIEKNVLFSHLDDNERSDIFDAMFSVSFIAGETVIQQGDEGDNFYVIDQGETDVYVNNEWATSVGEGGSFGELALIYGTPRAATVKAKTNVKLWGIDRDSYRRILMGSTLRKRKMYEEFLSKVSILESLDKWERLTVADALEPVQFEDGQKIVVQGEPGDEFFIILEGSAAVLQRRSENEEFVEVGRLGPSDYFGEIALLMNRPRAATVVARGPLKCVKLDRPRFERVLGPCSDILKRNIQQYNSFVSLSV
Excerpt: In a first experiment, the biological activity of the Rp- and Sp-isomer of 8-bromoadenosine-3′,5′-cyclic boranophosphate (examples 1 and 2) has been tested with the holoenzyme of protein kinase A type I alpha (FIGS. 3 and 4) using a standard photometric assay (Cook, P. F.; Neville, M. E., Jr.; Vrana, K. E.; Hartl, F. T. and Roskoski, R., Jr., Biochemistry 21, 5794-5799 (1982)).
As a control, two boranophosphate analogues with a 2′-O-methyl modification (Rp-2′-O-Me-cAMPB and Sp-2′-O-Me-cAMPB, examples 7 & 8) have been tested by the same type of assay with protein kinase A type I alpha as well.
FIG. 5 depicts the activity overview of four different cyclic boranophosphate analogues with protein kinase A type I alpha holoenzyme. 9108: Sp-2′-O-Me-cAMPB; 9109: Rp-2′-O-Me-cAMPB; 9110: Sp-8-Br-cAMPB; 9111: Rp-8-Br-cAMPB; controls: B 001: Rp-8-Br-cAMPS. Control: cAMP. “Cook Assay” with Holoenzyme RIα.

bovine CNGA2 channels = target: T1, bovine CNGA2 channels (Bos taurus, UniProt Q03041); experiment: Patch-clamp of inside-out oocyte membrane patches with olfactory CNGA2 channels; type: cell-based; conditions: for current, % of its maximal value: 500 μM compound, maximal value at 500 μM cAMP, n=3; for inhibition of channel activation by cAMP: applied in the presence of cAMP; for current amplitude, % of the amplitude observed in the absence of the compound: 50 μM cAMP, 50 μM compound, n=9
T1 construct: expressed in transfected cells; host or cells: Xenopus laevis oocytes (cRNA injection; inside-out membrane patches)
T1 sequence (Q03041 1-663): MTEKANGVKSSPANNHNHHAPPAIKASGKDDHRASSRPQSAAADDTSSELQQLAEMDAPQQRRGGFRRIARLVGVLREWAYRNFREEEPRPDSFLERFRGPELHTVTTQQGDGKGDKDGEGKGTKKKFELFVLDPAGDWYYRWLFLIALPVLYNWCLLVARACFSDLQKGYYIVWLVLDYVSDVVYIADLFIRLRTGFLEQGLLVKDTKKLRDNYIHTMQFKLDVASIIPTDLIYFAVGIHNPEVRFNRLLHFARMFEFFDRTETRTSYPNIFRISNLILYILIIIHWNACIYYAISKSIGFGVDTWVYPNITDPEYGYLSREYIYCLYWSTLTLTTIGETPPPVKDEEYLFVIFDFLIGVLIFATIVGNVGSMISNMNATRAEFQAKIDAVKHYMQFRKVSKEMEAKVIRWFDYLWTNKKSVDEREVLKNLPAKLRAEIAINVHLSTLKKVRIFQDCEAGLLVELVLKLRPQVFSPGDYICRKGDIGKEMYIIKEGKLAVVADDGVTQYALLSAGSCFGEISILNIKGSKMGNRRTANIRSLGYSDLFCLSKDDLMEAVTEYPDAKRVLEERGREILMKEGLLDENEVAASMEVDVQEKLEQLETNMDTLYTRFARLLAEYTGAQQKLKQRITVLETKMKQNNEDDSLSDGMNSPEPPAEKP
Excerpt: Next, the effects of cyclic nucleotide boranophosphates, disclosed in this invention, on olfactory cyclic nucleotide-gated ion channels in clamps of oocyte cell membrane patches were investigated.
For the experiments, oocytes were obtained and prepared as described previously (Biskup, C. et al., Nature 446, 440-443 (2007)). In brief, oocytes were obtained by partial ovariectomy from adult females of Xenopus laevis anaesthesized with 0.3% 3-aminobenzoic acid ethyl ester (Sigma). The oocytes were treated for 60-90 min with 1.2 mg/ml collagenase (Type I, Sigma) and separated manually. 40-70 nl of a solution containing cRNA encoding bovine CNGA2 channels (accession No. X55010) was injected, and the oocytes were incubated at 18° C. in Barth medium until they were used for the experiments within 3-6 days after injection. Immediately prior to the experiments the vitelline membrane of the oocytes was removed.
Currents were recorded in inside-out patches with the patch-clamp technique. The patch pipettes were pulled from quartz tubing (outer diameter 1.0 mm, inner diameter 0.7 mm) using a laser puller (P-2000, Sutter Instrument, Novato, Calif.). The pipette resistance was 0.8-2.5 MΩ. Recording was performed with an Axopatch 200B amplifier (Molecular Devices, Sunnyvale, Calif.). All experiments were performed with the same recording solution in the bath and the pipette containing (in mM) 150 KCl, 1 EGTA, 5 HEPES. pH was adjusted to 7.4 with KOH.
Measurements were controlled and data were collected with the ISO3 setup (MFK, Niedernhausen, Germany). The sampling rate was 5 kHz (filter 2 kHz). To test for possible background channel activity, each excised patch was first exposed to a solution containing no cyclic nucleotides.
FIGS. 15 A-C depict the agonistic activity of Rp-8-Br-cAMPB on CNGA2 channels. Currents were recorded in a patch containing CNGA2 channels. The patch membrane was clamped subsequently from 0 mV to −50 mV, +50 mV and back to 0 mV. […] (C) Current measured in the presence of 500 μM Rp-8-Br-cAMPB.
FIGS. 16 A-F depict the antagonistic activity of Sp-8-Br-cAMPB on CNGA2 channels. Currents were recorded in a patch containing CNGA2 channels. The patch membrane was clamped subsequently from 0 mV to −50 mV, +50 mV and back to 0 mV.

protein kinase A type II alpha holoenzyme, sequence (P13861 whole entry): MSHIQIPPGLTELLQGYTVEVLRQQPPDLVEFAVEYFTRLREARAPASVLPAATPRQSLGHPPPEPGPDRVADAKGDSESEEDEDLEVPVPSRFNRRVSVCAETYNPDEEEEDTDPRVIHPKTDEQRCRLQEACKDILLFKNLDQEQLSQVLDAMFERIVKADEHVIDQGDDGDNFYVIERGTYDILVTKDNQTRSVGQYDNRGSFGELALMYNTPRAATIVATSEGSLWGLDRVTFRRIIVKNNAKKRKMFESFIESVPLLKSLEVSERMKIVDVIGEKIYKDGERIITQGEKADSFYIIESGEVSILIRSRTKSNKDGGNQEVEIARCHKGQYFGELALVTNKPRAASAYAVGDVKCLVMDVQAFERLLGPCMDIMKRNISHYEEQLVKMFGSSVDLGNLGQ

Row | Substance | effect on protein kinase A type II alpha holoenzyme [1] | effect on protein kinase A type I alpha holoenzyme [2] | current, % of its maximal value (bovine CNGA2 channels; +50 mV) | current, % of its maximal value (bovine CNGA2 channels; −50 mV, mean±SEM) | inhibition of channel activation by cAMP (bovine CNGA2 channels) | preference for protein kinase A type I over type II, factor ([1]; antagonist) | current amplitude, % of the amplitude observed in the absence of the compound (bovine CNGA2 channels; +50 mV) | current amplitude, % of the amplitude observed in the absence of the compound (bovine CNGA2 channels; −50 mV) | intrinsic activity on CNGA2 channels (bovine CNGA2 channels; up to 100 μM, absence of cAMP)
1 | 8-Bromoadenosine-3′,5′-cyclic boranophosphate, Rp-isomer [Rp-8-Br-cAMPB] | even higher activation potential | agonistic property | 14±4% | 7±1% | does not inhibit channel activation by cAMP |  |  |  | 
2 | 8-Bromoadenosine-3′,5′-cyclic boranophosphate, Sp-isomer [Sp-8-Br-cAMPB] | only moderately antagonistic | inhibitory potential |  |  | competitive antagonist | 14 | 48±11% | 34±9% | did not show any intrinsic activity
